For orientation: inhibition means the change of the read-out against control, counted positive when it falls.

From EP0164204A1, “Novel pharmaceutically useful pyrimidines” (FISONS plc, priority 1984, dated 1985) come the findings set out here.

The subject of this assay is immune response to oxazolone. As to the kind of experiment: Rescue of the cyclophosphamide-inhibited delayed contact response to oxazolone in mice (Example A, b). Format: in vivo. To be noted: Mus musculus, ip, 48 h; cyclophosphamide alone, 200mg/kg intraperitoneal, two days after sensitisation with oxazolone; C57B1 mice.

On to `O=P1(N(CCCl)CCCl)NCCCO1` (stereo not shown) [cyclophosphamide], for which the inhibition at 200 mg/kg turned out to be 64%.
